One series addresses T1, Recombinant human BACE1 (Homo sapiens, UniProt P56817).
T1 construct: purchased R&D Systems
Nature of the series: Assay of BACE1 inhibiting activity. The class given is biochemical. The settings on record: 50% inhibitory concentration against enzymatic activity, pH 5.0, 30° C., 3 hours. Put shortly: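 Recombinant human BACE1 (7.4 nM) incubated with 18 nM biotinylated Eu-cryptate peptide substrate in pH 5.0 sodium acetate, 3 h at 30 °C. Streptavidin-XL665 added, 1 h; TR-FRET 665/620 nm ratio gives activity, from which IC50 is calculated.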

Series [1] concerns Neuroblastoma SH-SY5Y cells (SH/APPwt) with human wild-type β-APP excessively expressed. Nature of the series: Measurement of β-amyloid (Aβ) production inhibitory effect in cell. The class given is cell-based. The settings on record: Homo sapiens, SH-SY5Y, 24 h, amount needed to inhibit Aβ production by 50%, 24 hours incubation, Amyloid β1-40 HTRF. Put shortly:
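SH-SY5Y cells overexpressing human wild-type β-APP exposed to compound for 24 h at 37 °C in 1% final DMSO. Secreted Aβ1-40 in supernatant measured by HTRF (overnight at 4 °C; 665/620 nm ratio). IC50 derived from at least six concentrations.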
On the technique in general: In TR-FRET formats the signal depends on donor and acceptor labels being close together.

Series [2] deals with Salmonella typhimurium (TA98 and TA100 strain). Nature of the series: FAT test. In kind it is cell-based. On the set-up: key: (−) means that mutagenicity is negative; (+) means positive. The settings on record: TA98 and TA100, with and without metabolic activation system. On the procedure: Each 20 μL of freeze-stored Salmonella typhimurium (TA98 and TA100 strain) was inoculated in 10 mL of liquid nutrient medium (2.5% Oxoid nutrient broth No. 2), and the cultures were incubated at 37° C. under shaking for 10 hours. 9 mL of TA98 culture was centrifuged (2000×g, 10 minutes) to remove medium, and the bacteria was suspended in 9 mL of Micro F buffer (K2HPO4: 3.5 g/L, KH2PO4: 1 g/L, (NH4)2SO4: 1 g/L, trisodium citrate dehydrate: 0.25 g/L, MgSO4.7H2O: 0.1 g/L), and the suspension was added to 110 mL of Exposure medium (Micro F buffer containing Biotin: 8 μg/mL, histidine: 0.2 μg/mL, glucose: 8 mg/mL). 3.16 mL of TA100 culture was added to 120 mL of Exposure medium to prepare the test bacterial solution. […] The number of the yellow wells among the 48 total wells per dose was counted, and evaluated the mutagenicity by comparing with the negative control group. […]

From US20120015961A1, “ISOTHIOUREA DERIVATIVES OR ISOUREA DERIVATIVES HAVING BACE1 INHIBITORY ACTIVITY” (SHIONOGI & CO., LTD., priority 2009, published 2012) come the findings set out here.

A value given as a limit tells only on which side of the number the result lay.

T1 sequence (P56817 46-501): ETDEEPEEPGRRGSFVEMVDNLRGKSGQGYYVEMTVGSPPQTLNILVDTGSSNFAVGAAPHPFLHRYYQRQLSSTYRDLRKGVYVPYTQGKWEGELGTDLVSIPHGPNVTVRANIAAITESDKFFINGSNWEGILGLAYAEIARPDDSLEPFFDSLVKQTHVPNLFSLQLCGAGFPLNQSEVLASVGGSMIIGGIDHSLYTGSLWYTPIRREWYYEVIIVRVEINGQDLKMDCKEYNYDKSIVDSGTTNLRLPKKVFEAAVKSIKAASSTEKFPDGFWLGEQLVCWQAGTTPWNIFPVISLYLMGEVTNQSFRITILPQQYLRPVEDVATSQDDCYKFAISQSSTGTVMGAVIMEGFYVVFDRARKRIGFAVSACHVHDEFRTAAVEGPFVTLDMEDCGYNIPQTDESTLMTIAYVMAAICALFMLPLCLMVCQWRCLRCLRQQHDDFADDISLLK

In general, IC50 refers to the concentration that gives 50% inhibition. As to `CO/C(N)=N\C1(c2cccc(NC(=O)c3ccc(C#N)cn3)c2)CC1` [Compound 44], the IC50 (at Recombinant human BACE1; in series [1]) was no more than 1000 nM throughout. For the same molecule, the mutagenicity result in series [2] was “(−)”.
